We go through one compound from patent US20090061027A1, “Composition For The Prevention and Treatment Of Common Cold Diseases” (priority 2006, published 2009).

The series has as its system A549 cells. The series is described as follows: Examination of the apoptotic caspase activation (Western Blot, PARP cleaving). The format is cell-based. The note with it: 48 hours, extract 25 and 50 μg/ml, staurosporine as positive control stimulus. On the procedure: To examine the apoptotic caspase activation, A549 cells were treated with 25 and 50 μg/ml of the extract for 48 hours. The cells were then lysed, and the cellular proteins were separated using gel electrophoresis and examined in the Western Blot with an antiPARP antibody (Poly(ADP-Ribose) polymerase, caspase substrate) for the apoptotic cleaving of this protein by caspases. The apoptosis-inductor staurosporine served as the positive control stimulus. The experiments were conducted in two parallel batches.

Regarding `CN[C@@H]1C[C@H]2O[C@@](C)([C@@H]1OC)n1c3ccccc3c3c4c(c5c6ccccc6n2c5c31)C(=O)NC4` [staurosporine], the “caspase activation / apoptotic cleaving of PARP” value is listed as “efficient cleaving of the caspase substrate”.
